Reference: US20240174637A1, “DEGRADERS OF GRK2 AND USES THEREOF” (Sonata Therapeutics, Inc., priority 2021, published 2024)
Where a name gives a salt, the structure may show the parent alone. Read-outs that look alike come from different tables or passages of the source.

Tests used:
[1] = target: T1, GRK2 (Homo sapiens, UniProt P25098); assay: GRK2 Inhibition Assay (TR-FRET, Example 1); type: biochemical
T1 sequence (P25098 1-689): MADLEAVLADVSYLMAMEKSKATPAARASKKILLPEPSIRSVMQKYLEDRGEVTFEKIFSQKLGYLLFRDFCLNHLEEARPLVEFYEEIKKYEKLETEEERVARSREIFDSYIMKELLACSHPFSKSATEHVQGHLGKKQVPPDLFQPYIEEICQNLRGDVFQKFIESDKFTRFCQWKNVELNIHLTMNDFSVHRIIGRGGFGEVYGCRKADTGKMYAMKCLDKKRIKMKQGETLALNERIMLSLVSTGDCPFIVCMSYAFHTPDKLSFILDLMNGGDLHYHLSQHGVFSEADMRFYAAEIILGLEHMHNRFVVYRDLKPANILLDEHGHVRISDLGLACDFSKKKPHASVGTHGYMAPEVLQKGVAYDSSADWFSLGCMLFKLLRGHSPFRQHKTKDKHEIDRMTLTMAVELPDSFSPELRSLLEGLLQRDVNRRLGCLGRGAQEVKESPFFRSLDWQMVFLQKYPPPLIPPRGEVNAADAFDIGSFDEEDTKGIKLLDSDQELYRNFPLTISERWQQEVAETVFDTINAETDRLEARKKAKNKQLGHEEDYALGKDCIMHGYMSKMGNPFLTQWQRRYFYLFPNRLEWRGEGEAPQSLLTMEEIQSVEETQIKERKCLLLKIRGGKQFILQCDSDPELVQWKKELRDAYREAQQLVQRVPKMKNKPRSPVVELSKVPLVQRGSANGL
Description: Assay: GRK2 enzyme (1 nM final concentration) was diluted in 25 mM HEPES, 10 mM MgCl2, 2 mM DTT, 0.01% Tween-20, and 1 mM EGTA. Then the GRK2 mixture was added into ProxiPlate-384 white plate and pre-incubated for 30 min with test compounds at room temperature. ATP (7 μM final concentration) and Ulight TopoIIα (50 nM final concentration) were added into the assay plate to initiate the reaction and the mixture was incubated at room temperature for 90 min. Then, Eu anti-TopoIIα (0.12 nM final concentration), BSA (0.01% final concentration), and EDTA (11 mM final concentration) in LANCE assay buffer were added into each well. After 60 min incubation time at room temperature, TR-FRET signal was measured by EnVision plate reader.

[2] = test system: PAXF1657 KO Clone #4; assay: 7-day cellular proliferation assay (CellTiter-Glo), PAXF1657 KO Clone #4; type: cell-based
In short: (§1)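 Seven-day growth in PAXF1657 lines engineered for GRK2 overexpression or knockout, measured by CellTiter-Glo; compounds tested at 30 μM-0.0002 μM final and replenished once at day 3.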

[3] = test system: PAXF1657 EV; assay: 7-day cellular proliferation assay (CellTiter-Glo), PAXF1657 EV; type: cell-based
In short: as §1

[4] = target: T1, GRK2; assay: GRK2 Degradation Assay and Western Blot in PAXF1657 cells; type: cell-based; parameters: endogenous in cells; host or cells: PAXF1657; conditions: for DC50: PAXF1657, 24 h, read-out: Degradation Assay - Full Dose Response: IC50 (uM) [cell line: PAXF1657, time point: 24 h]
In short: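 PAXF1657 cells grown to 70% confluency, then treated with compounds at 0–10 μM for 6 to 24 h at 37 °C. Lysates in PBS with 1% NP40 run on SDS-PAGE. GRK2 protein detected by western blot with β-actin as loading reference, using ECL chemiluminescence.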

[5] = Table 4, Example 1 assay, read-out: Enzymatic GRK2 IC50: Av IC50 GRK2
[6] = proliferation, read-out: GeoMean IC50 (uM) PAXF1657 KO Clone #4
[7] = proliferation, read-out: GeoMean IC50 (UM) PAXF1657 EV
[8] = Conc 0.3 uM, read-out: Degradation Assay - 3 point: Degradation (%)
[9] = Conc 1 uM, read-out: Degradation Assay - 3 point: Degradation (%)
[10] = Conc 3 uM, read-out: Degradation Assay - 3 point: Degradation (%)
[11] = TR-FRET, 7 μM ATP, read-out: Enzymatic GRK2 Assay: IC50 (nM) (Example 1)
[12] = 168 h, 7-day, read-out: 7-day proliferation assay: IC50 GeoMean (uM) [Cell Line: PAXF1657 KO Clone #4]
[13] = 168 h, 7-day, read-out: 7-day proliferation assay: IC50 GeoMean (uM) [Cell Line: PAXF1657 EV]
[14] = 1 uM, PAXF1657 EV, 24 hrs, read-out: % GRK2 degradation at 1 uM in PAXF1657 EV (24 hrs)
[15] = 3 uM, PAXF1657 EV, 24 hrs, read-out: % GRK2 degradation at 3 uM in PAXF1657 EV (24 hrs)

Structure (SMILES) | IC50 [1, 5] [nM] | inhibition at 0.3 µM [4, 8] [%] | inhibition at 1 µM [4, 9] [%] | inhibition at 3 µM [4, 10] [%] | IC50 [1, 11] [nM] | inhibition at 0.3 µM ([4]; 0.3 uM, PAXF1657 EV, 24 hrs, read-out: % GRK2 degradation at 0.3 uM in PAXF1657 EV (24 hrs)) [%] | inhibition at 1 µM [4, 14] [%] | inhibition at 3 µM [4, 15] [%] | DC50 [4] [µM] | IC50 [2, 6] [µM] | IC50 [3, 7] [µM] | IC50 [2, 12] [µM] | IC50 [3, 13] [µM]
C[C@@H](NC(=O)c1cccc(NCc2nnc(-c3ccncn3)n2C)c1)c1ccc(OCCCCCCOCCOCCOCCCC(=O)N2CCN(c3ccc4c(c3)CN(C3CCC(=O)NC3=O)C4=O)CC2)cc1 (stereo partly drawn) [Compound D124, N-((1R)-1-(4-(6-(2-(2-(4-(4-(2-(2,6-dioxopiperidin-3-yl)-1-oxoisoindolin-5-yl)piperazin-1-yl)-4-oxobutoxy)ethoxy)ethoxy)hexyloxy)phenyl)ethyl)-3-((4-methyl-5-(pyrimidin-4-yl)-4H-1,2,4-triazol-3-yl)methylamino)benzamide] | 5.4 | 80.5 | 90.7 | 89.3 | – | – | – | – | 0.1 | > 30 | 0.09 | – | –
C[C@@H](NC(=O)c1cccc(NCc2nnc(-c3ccncn3)n2C)c1)c1cccc(OCCCCCCOCCOCCN2CCN(c3ccc4c(c3)CN(C3CCC(=O)NC3=O)C4=O)CC2)c1 (stereo partly drawn) [Compound D135, N-((1R)-1-(3-(6-(2-(2-(4-(2-(2,6-dioxopiperidin-3-yl)-1-oxoisoindolin-5-yl)piperazin-1-yl)ethoxy)ethoxy)hexyloxy)phenyl)ethyl)-3-((4-methyl-5-(pyrimidin-4-yl)-4H-1,2,4-triazol-3-yl)methylamino)benzamide] | 23.7 | 82.2 | 84.2 | 84.3 | – | – | – | – | 0.06 | – | – | – | –
C[C@H](NC(=O)c1cccc(NCc2nnc(-c3ccncn3)n2C)c1)c1ccc(OCCCCN2CCN(c3ccc4c(c3)CN(C3CCC(=O)NC3=O)C4=O)CC2)cc1 (stereo partly drawn) [Compound D117, N-((1S)-1-(4-(4-(4-(2-(2,6-dioxopiperidin-3-yl)-1-oxoisoindolin-5-yl)piperazin-1-yl)butoxy)phenyl)ethyl)-3-((4-methyl-5-(pyrimidin-4-yl)-4H-1,2,4-triazol-3-yl)methylamino)benzamide hydrochloride] | > 1000 | 12.3 | -20.5 | -4.97 | – | – | – | – | – | – | – | – | –
Cc1ncsc1-c1ccc(CNC(=O)[C@@H]2C[C@@H](O)CN2C(=O)[C@@H](NC(=O)CCCCCOCCOCCOCCCCCCOc2ccc(F)c(CNC(=O)c3cccc(NCc4nnc(-c5ccncn5)n4C)c3)c2)C(C)(C)C)cc1 [Compound D88, (2S,4R)-1-((S)-2-(tert-butyl)-22-(4-fluoro-3-((3-(((4-methyl-5-(pyrimidin-4-yl)-4H-1,2,4-triazol-3-yl)methyl)amino)benzamido)methyl)phenoxy)-4-oxo-10,13,16-trioxa-3-azadocosan-1-oyl)-4-hydroxy-N-(4-(4-methylthiazol-5-yl)benzyl)pyrrolidine-2-carboxamide] | – | – | – | – | 100 to 1000 | – | – | – | – | – | – | – | –
C[C@@H](NC(=O)c1cccc(NCc2nnc(-c3ccncn3)n2C)c1)c1cccc(OCCCCCCOCCN2CCN(c3cc4c(cc3F)C(=O)N(C3CCC(=O)NC3=O)C4=O)CC2)c1 (stereo partly drawn) [Compound D134, N-((1R)-1-(3-(6-(2-(4-(2-(2,6-dioxopiperidin-3-yl)-6-fluoro-1,3-dioxoisoindolin-5-yl)piperazin-1-yl)ethoxy)hexyloxy)phenyl)ethyl)-3-((4-methyl-5-(pyrimidin-4-yl)-4H-1,2,4-triazol-3-yl)methylamino)benzamide] | 29.9 | 64.1 | 82.6 | 86.7 | – | – | – | – | 0.29 | – | – | – | –

More lines, main results first:

IC50 [1, 5] [nM] | inhibition at 0.3 µM [4, 8] [%] | inhibition at 1 µM [4, 9] [%] | inhibition at 3 µM [4, 10] [%] | IC50 [1, 11] [nM] | inhibition at 0.3 µM ([4]; 0.3 uM, PAXF1657 EV, 24 hrs, read-out: % GRK2 degradation at 0.3 uM in PAXF1657 EV (24 hrs)) [%] | inhibition at 1 µM [4, 14] [%] | inhibition at 3 µM [4, 15] [%] | DC50 [4] [µM] | Structure (SMILES) | IC50 [2, 6] [µM] | IC50 [3, 7] [µM] | IC50 [2, 12] [µM] | IC50 [3, 13] [µM]
7.31 | 43 | 74 | 85 | – | – | – | – | – | C[C@@H](NC(=O)c1cccc(NCc2nnc(-c3ccncn3)n2C)c1)c1cccc(OCCCCCOCCCOCC(=O)N2CCN(c3cc4c(cc3F)C(=O)N(C3CCC(=O)NC3=O)C4=O)CC2)c1 (stereo partly drawn) [Compound D180, N-((1R)-1-(3-((5-(3-(2-(4-(2-(2,6-dioxopiperidin-3-yl)-6-fluoro-1,3-dioxoisoindolin-5-yl)piperazin-1-yl)-2-oxoethoxy)propoxy)pentyl)oxy)phenyl)ethyl)-3-(((4-methyl-5-(pyrimidin-4-yl)-4H-1,2,4-triazol-3-yl)methyl)amino)benzamide] | > 30 | 0.82 | – | –
– | – | – | – | < 100 | 34 | 55 | 68 | – | Cn1c(CNc2cccc(C(=O)NCc3cccc(OCCCCCCn4cc(CCCC(=O)Nc5cccc6c5CN(C5CCC(=O)NC5=O)C6=O)nn4)c3)c2)nnc1-c1ccncn1 (stereo not drawn) [Compound D63] | – | – | > 10 | > 10
6.56 | 81.6 | 85.2 | 84 | – | – | – | – | 0.03 | C[C@@H](NC(=O)c1cccc(NCc2nnc(-c3ccncn3)n2C)c1)c1cccc(OCCCN2CCN(c3ccc4c(c3)CN(C3CCC(=O)NC3=O)C4=O)CC2)c1 (stereo partly drawn) [Compound D123, N-((1R)-1-(3-(3-(4-(2-(2,6-dioxopiperidin-3-yl)-1-oxoisoindolin-5-yl)piperazin-1-yl)propoxy)phenyl)ethyl)-3-((4-methyl-5-(pyrimidin-4-yl)-4H-1,2,4-triazol-3-yl)methylamino)benzamide hydrochloride] | > 30 | < 0.000458 | – | –
– | – | – | – | < 100 | – | 23 | 18 | – | Cc1ncsc1-c1ccc(CNC(=O)[C@@H]2C[C@@H](O)CN2C(=O)[C@@H](NC(=O)CCCCCOCCOCCOCCCCCCOc2ccc(CNC(=O)c3cccc(NCc4nnc(-c5ccncn5)n4C)c3)cc2)C(C)(C)C)cc1 [Compound D87] | – | – | > 10 | 1 to 10
9.55 | 90.8 | 94.8 | 89.6 | – | – | – | – | – | C[C@@H](NC(=O)c1cccc(NCc2nnc(-c3ccncn3)n2C)c1)c1cccc(C(=O)N2CCC(CCN3CCN(c4ccc5c(c4)CN(C4CCC(=O)NC4=O)C5=O)CC3)CC2)c1 (stereo partly drawn) [Compound D120] | > 30 | 0.04 | – | –
> 1000 | -13.1 | 3.23 | 5.18 | – | – | – | – | – | C[C@H](NC(=O)c1cccc(NCc2nnc(-c3ccncn3)n2C)c1)c1ccc(OCCCN2CCN(c3ccc4c(c3)CN(C3CCC(=O)NC3=O)C4=O)CC2)cc1 (stereo partly drawn) [Compound D118, N-((1S)-1-(4-(3-(4-(2-(2,6-dioxopiperidin-3-yl)-1-oxoisoindolin-5-yl)piperazin-1-yl)propoxy)phenyl)ethyl)-3-((4-methyl-5-(pyrimidin-4-yl)-4H-1,2,4-triazol-3-yl)methylamino)benzamide hydrochloride] | – | – | – | –
– | – | – | – | < 100 | – | – | – | – | Cc1ncsc1-c1ccc(CNC(=O)[C@@H]2C[C@H](O)CN2C(=O)[C@@H](NC(=O)CCCCCOCCOCCOCCCCCCOc2cccc(CNC(=O)c3cccc(NCc4nnc(-c5ccncn5)n4C)c3)c2)C(C)(C)C)cc1 [Compound D89] | – | – | – | –
